Test results: ChEMBL document CHEMBL1122939, “N6-cycloalkyladenosines. Potent, A1-selective adenosine agonists” (J Med Chem, 1985)

Columns and labels:
Adenosine A2 receptor = Adenosine A2 receptor (Rattus norvegicus, UniProt P29276+P30543)
Description: Displacement of [3H]-NECA from adenosine A2 receptor of rat striatal membrane

[1] = Lipophilicity value was evaluated; type: physicochemical; details: octanol/water
Adenosine receptor A1 = target: T1, Adenosine receptor A1 (Rattus norvegicus, UniProt P25099)
T1 sequence (P25099 whole entry): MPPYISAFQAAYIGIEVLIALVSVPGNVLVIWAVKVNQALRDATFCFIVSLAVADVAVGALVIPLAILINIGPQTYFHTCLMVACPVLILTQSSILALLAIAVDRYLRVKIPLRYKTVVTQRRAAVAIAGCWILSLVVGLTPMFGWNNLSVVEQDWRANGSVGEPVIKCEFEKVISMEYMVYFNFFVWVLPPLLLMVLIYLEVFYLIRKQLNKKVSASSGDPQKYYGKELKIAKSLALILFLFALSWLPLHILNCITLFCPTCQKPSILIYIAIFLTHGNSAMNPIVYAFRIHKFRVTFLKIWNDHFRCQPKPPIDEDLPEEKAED

SMILES | Ki (Adenosine A2 receptor) [nM] | Log k [1] | Ki (Adenosine receptor A1) [nM]
OC[C@H]1O[C@@H](n2cnc3c(NC4CCC4)ncnc32)[C@H](O)[C@@H]1O | 263 | 1.22 | 0.777
Nc1nc(Cl)nc2c1ncn2[C@@H]1O[C@H](CO)[C@@H](O)[C@H]1O | – | – | 8.74
OC[C@H]1O[C@@H](n2cnc3c(NC4CCCCC4)ncnc32)[C@H](O)[C@@H]1O | – | 1.6 | –
OC[C@H]1O[C@@H](n2cnc3c(NC4CCCC4)ncnc32)[C@H](O)[C@@H]1O [N6-CYCLOPENTYLADENOSINE] | 462 | 1.56 | –
OC[C@H]1O[C@@H](n2cnc3c(NC4CCCCCCC4)ncnc32)[C@H](O)[C@@H]1O | 2450 | 2.9 | 4.03
OC[C@H]1OC(n2cnc3c(NC4CCCCCCCCC4)ncnc32)[C@H](O)[C@@H]1O (some centres undefined) | 5190 | 3.62 | 100
OC[C@H]1O[C@@H](n2cnc3c(NC4CC4)ncnc32)[C@H](O)[C@@H]1O | 1240 | 0.53 | 319
OC[C@H]1O[C@@H](n2cnc3c(NC4CCCCCC4)ncnc32)[C@H](O)[C@@H]1O | 1690 | 2.4 | 2.79
Cn1c(=O)[nH]c2c(ncn2C2O[C@H](CO)[C@@H](O)[C@H]2O)c1=N (some centres undefined) | 3250 | – | 144
OC[C@H]1OC(n2cnc3c(NC4CCCCCCCCCCC4)ncnc32)[C@H](O)[C@@H]1O (some centres undefined) | 47700 | 4.52 | 5390
